Data: paper PMC8557866, “Novel Small Molecule Growth Inhibitor Affecting Bacterial Outer Membrane Reduces Extraintestinal Pathogenic Escherichia coli (ExPEC) Infection in Avian Model” (Microbiology Spectrum, 2021)
Where two headings read alike, the source gives them in different places.

Legend:
APEC serotype O78 = system: APEC serotype O78
Experimental: The efficacy of GIs was assessed using commercial broiler chickens (n = 6/group). […] GI compounds (ChemBridge, San Diego, CA) dissolved in dimethyl sulfoxide (DMSO) were administered orally using a syringe, twice a day, from day 4 (1 day before APEC infection) to day 8 (3 days postinfection [dpi]). The dose of each GI is described in Table S1. […] Chickens that were infected and vehicle-treated (positive control [PC]) and noninfected and nontreated (negative control [NC]) were included as controls. On day 5, chickens were infected subcutaneously (s.c.) with rifampin-resistant (Rif^r) APEC serotype O78 ([18]) (1 × 10^7 CFU/chicken). […] To prepare the APEC inoculum for infection, Rif^r APEC O78 (50 μg/ml rifampin) was grown to logarithmic phase in LB medium, washed twice with phosphate-buffered saline (PBS), and adjusted to an optical density at 600 nm (OD600) of 0.1 (5 × 10^7 CFU/ml). The clinical signs and mortality were recorded until 7 dpi. Chickens that died during this period were necropsied on the same day, lesions in internal organs (liver, heart, lung, and air sacs) were scored as described previously ([63], [71]), and the APEC loads were quantified in internal organs (liver, heart, lung, and kidney) by plating the tissue homogenates on MacConkey agar plates containing 50 μg/ml rifampin ([18]). At 7 dpi (day 12), all live birds were euthanized, lesions were scored, and the APEC loads in internal organs were quantified as described above. The body weight of chickens was measured before GI treatment (day 3) and at the day of necropsy (day 12).

APEC O78 [1] = conditions: for Mortality reduction compared to PC group: 7 days, PC mortality 60%; for Cumulative lesion score: PC 8.8; for Survival of chickens: P < 0.05, log-rank test
Experimental: Prior to selection of these doses, we conducted a preliminary study using 20-mg/liter, 200-mg/liter, and 500-mg/liter doses (doses similar to those of antibiotics currently used in the poultry industry). […] The experiment was conducted using commercial broiler chickens (n = 11/group) as described above following procedures described in Fig. S1A. […] The amount of drinking water was adjusted daily based on the age and requirement of chickens (https://www.thepoultrysite.com/articles/broiler-water-consumption). The clinical signs and mortality, lesion scores, and APEC loads were determined as described above.

APEC O78 [2] = experiment: Comparative efficacy of GI-7 and sulfadimethoxine, floor trial; type: in vivo, commercial broiler chickens; set-up: Cumulative lesion score / Mean lesion score in Liver / Mean lesion score in Heart / Mean lesion score in Lung / Mean lesion score in Air sacs: scale not given here
Experimental: At day 13 (7 dpi), half of the chickens from each group, and at day 42 (slaughter age), 10 chickens from each group were necropsied and lesions and APEC loads were assessed as described above.

[3] = 20 mg/L in drinking water, vs PC
[4] = 20 mg/liter in drinking water, vs PC
[5] = 40 mg/L in drinking water, vs PC
[6] = 40 mg/liter in drinking water, vs PC
[7] = 60 mg/L in drinking water, vs PC
[8] = 60 mg/liter in drinking water, vs PC
[9] = comparative efficacy trial, vs PC
[10] = comparative efficacy, GI-7 60 mg/liter, SDM 495.3 mg/liter, 7 dpi

COc1ccc(CNCc2cccc(C(F)(F)F)c2)cc1OCC(O)CN1CCCC1 (stereo not drawn) [GI-7]
Mean APEC load, Heart (APEC serotype O78; efficacy trial, oral): 2.7 Log CFU/g tissues | Mean APEC load, Kidney (APEC serotype O78; efficacy trial, oral): 2.3 Log CFU/g tissues | Mean APEC load, Liver (APEC serotype O78; efficacy trial, oral): 2.1 Log CFU/g tissues | Mean APEC load, Lung (APEC serotype O78; efficacy trial, oral): 2.7 Log CFU/g tissues | Mean lesion score in Air sacs (APEC serotype O78; efficacy trial, oral): 0.7 | Mean lesion score in Heart (APEC serotype O78; efficacy trial, oral): 0.8 | Mean lesion score in Liver (APEC serotype O78; efficacy trial, oral): 0.7 | Mean lesion score in Lung (APEC serotype O78; efficacy trial, oral): 0.2 | Survival of chickens (APEC serotype O78; efficacy trial, oral, P ≤ 0.1, log rank test): prolonged the survival | Cumulative lesion score (APEC serotype O78; efficacy trial, oral, PC 6.2): 2.3 | Mortality reduction compared to PC group (APEC serotype O78; efficacy trial, oral, PC mortality 58.3%): 41.7% | % reduction in severity, Air sacs lesions (APEC serotype O78; efficacy trial, oral, vs PC): 52.9% | % reduction in severity, Heart lesions (APEC serotype O78; efficacy trial, oral, vs PC): 60% | % reduction in severity, Liver lesions (APEC serotype O78; efficacy trial, oral, vs PC): 60% | % reduction in severity, Lung lesions (APEC serotype O78; efficacy trial, oral, vs PC): 83.3% | log reduction in APEC load, Heart (APEC serotype O78; efficacy trial, oral, vs PC): 2.3 Log CFU/g tissues | log reduction in APEC load, Kidney (APEC serotype O78; efficacy trial, oral, vs PC): 3.2 Log CFU/g tissues | log reduction in APEC load, Liver (APEC serotype O78; efficacy trial, oral, vs PC): 2.5 Log CFU/g tissues | log reduction in APEC load, Lung (APEC serotype O78; efficacy trial, oral, vs PC): 2.4 Log CFU/g tissues | BWG (body weight gain) (APEC serotype O78; in vivo): 261.3±20.4 | Mean APEC load, Heart (APEC O78 [1]; 20 mg/L in drinking water): 6.7 Log CFU/g tissues | Mean APEC load, Kidney (APEC O78 [1]; 20 mg/L in drinking water): 5.9 Log CFU/g tissues | Mean APEC load, Liver (APEC O78 [1]; 20 mg/L in drinking water): 6.0 Log CFU/g tissues | Mean APEC load, Lung (APEC O78 [1]; 20 mg/L in drinking water): 6.3 Log CFU/g tissues | log reduction in APEC load, Heart (APEC O78 [1]; [3]): -0.2 Log CFU/g tissues | log reduction in APEC load, Kidney (APEC O78 [1]; [3]): 0.2 Log CFU/g tissues | log reduction in APEC load, Liver (APEC O78 [1]; [3]): -0.1 Log CFU/g tissues | log reduction in APEC load, Lung (APEC O78 [1]; [3]): -0.4 Log CFU/g tissues | Mean lesion score in Air sacs (APEC O78 [1]; 20 mg/liter in drinking water): 2.3 | Mean lesion score in Heart (APEC O78 [1]; 20 mg/liter in drinking water): 2.7 | Mean lesion score in Liver (APEC O78 [1]; 20 mg/liter in drinking water): 2 | Mean lesion score in Lung (APEC O78 [1]; 20 mg/liter in drinking water): 1.8 | Mortality reduction compared to PC group (APEC O78 [1]; 20 mg/liter in drinking water): 10% | Cumulative lesion score (APEC O78 [1]; 20 mg/liter in drinking water): 8.8 | % reduction in severity, Air sacs lesions (APEC O78 [1]; [4]): 1.4% | % reduction in severity, Heart lesions (APEC O78 [1]; [4]): −9.5% | % reduction in severity, Liver lesions (APEC O78 [1]; [4]): 0% | % reduction in severity, Lung lesions (APEC O78 [1]; [4]): 10% | Mean APEC load, Heart (APEC O78 [1]; 40 mg/L in drinking water): 4.4 Log CFU/g tissues | Mean APEC load, Kidney (APEC O78 [1]; 40 mg/L in drinking water): 4.2 Log CFU/g tissues | Mean APEC load, Liver (APEC O78 [1]; 40 mg/L in drinking water): 3.9 Log CFU/g tissues | Mean APEC load, Lung (APEC O78 [1]; 40 mg/L in drinking water): 4.0 Log CFU/g tissues | log reduction in APEC load, Heart (APEC O78 [1]; [5]): 2.0 Log CFU/g tissues | log reduction in APEC load, Kidney (APEC O78 [1]; [5]): 1.9 Log CFU/g tissues | log reduction in APEC load, Liver (APEC O78 [1]; [5]): 2.0 Log CFU/g tissues | log reduction in APEC load, Lung (APEC O78 [1]; [5]): 2.0 Log CFU/g tissues | Reduction of severity of APEC lesions in internal organs (APEC O78 [1]; 40 mg/liter and 60 mg/liter in drinking water, vs PC): up to 36.3% | Mean lesion score in Heart (APEC O78 [1]; 40 mg/liter in drinking water): 2.6 | Mean lesion score in Liver (APEC O78 [1]; 40 mg/liter in drinking water): 2 | Mortality reduction compared to PC group (APEC O78 [1]; 40 mg/liter in drinking water): 50% | Survival of chickens (APEC O78 [1]; 40 mg/liter in drinking water): prolonged the survival | Cumulative lesion score (APEC O78 [1]; 40 mg/liter in drinking water): 7.7 | % reduction in severity, Heart lesions (APEC O78 [1]; [6]): −5.4% | % reduction in severity, Liver lesions (APEC O78 [1]; [6]): 0% | % reduction in severity, Lung lesions (APEC O78 [1]; [6]): 30% | Mean APEC load, Heart (APEC O78 [1]; 60 mg/L in drinking water): 4.0 Log CFU/g tissues | Mean APEC load, Kidney (APEC O78 [1]; 60 mg/L in drinking water): 3.6 Log CFU/g tissues | Mean APEC load, Liver (APEC O78 [1]; 60 mg/L in drinking water): 3.5 Log CFU/g tissues | Mean APEC load, Lung (APEC O78 [1]; 60 mg/L in drinking water): 4.4 Log CFU/g tissues | log reduction in APEC load, Heart (APEC O78 [1]; [7]): 2.4 Log CFU/g tissues | log reduction in APEC load, Kidney (APEC O78 [1]; [7]): 2.5 Log CFU/g tissues | log reduction in APEC load, Liver (APEC O78 [1]; [7]): 2.4 Log CFU/g tissues | log reduction in APEC load, Lung (APEC O78 [1]; [7]): 1.6 Log CFU/g tissues | Mean lesion score in Heart (APEC O78 [1]; 60 mg/liter in drinking water): 2.1 | Mean lesion score in Lung (APEC O78 [1]; 60 mg/liter in drinking water): 1.4 | Mortality reduction compared to PC group (APEC O78 [1]; 60 mg/liter in drinking water): 50.9% | Survival of chickens (APEC O78 [1]; 60 mg/liter in drinking water): prolonged the survival | Cumulative lesion score (APEC O78 [1]; 60 mg/liter in drinking water): 6.6 | % reduction in severity, Air sacs lesions (APEC O78 [1]; [8]): 33.8% | % reduction in severity, Heart lesions (APEC O78 [1]; [8]): 15.2% | % reduction in severity, Liver lesions (APEC O78 [1]; [8]): 13.6% | % reduction in severity, Lung lesions (APEC O78 [1]; [8]): 36.3% | Anti-APEC effect compared to treatment at 60 mg/liter (APEC O78 [1]; 80 mg/liter, follow-up study, data not shown): did not result in a better anti-APEC effect | Reduction of severity of lesions (APEC O78 [2]; 60 mg/liter in drinking water, as given in the abstract): 29.5% | Mortality reduction compared to PC group (APEC O78 [2]; GI-7 60 mg/liter, SDM 495.3 mg/liter in drinking water, PC mortality 41.2%): 14.7% | Mean APEC load, Heart (APEC O78 [2]; comparative efficacy trial): 6.1 Log CFU/g tissues | Mean APEC load, Kidney (APEC O78 [2]; comparative efficacy trial): 6.1 Log CFU/g tissues | Mean APEC load, Liver (APEC O78 [2]; comparative efficacy trial): 5.7 Log CFU/g tissues | Mean APEC load, Lung (APEC O78 [2]; comparative efficacy trial): 6.1 Log CFU/g tissues | log reduction in APEC load, Heart (APEC O78 [2]; [9]): 1.8 Log CFU/g tissues | log reduction in APEC load, Kidney (APEC O78 [2]; [9]): 1.6 Log CFU/g tissues | log reduction in APEC load, Liver (APEC O78 [2]; [9]): 1.8 Log CFU/g tissues | log reduction in APEC load, Lung (APEC O78 [2]; [9]): 2.0 Log CFU/g tissues | Cumulative lesion score (APEC O78 [2]; comparative efficacy, 7 dpi): 9.8 | Mean lesion score in Air sacs (APEC O78 [2]; [10]): 3.0 | Mean lesion score in Heart (APEC O78 [2]; [10]): 3.2 | Mean lesion score in Liver (APEC O78 [2]; [10]): 2.3 | Mean lesion score in Lung (APEC O78 [2]; [10]): 1.3 | % reduction in severity, Air sacs lesions (APEC O78 [2]; comparative efficacy, vs PC): 9.9% | % reduction in severity, Heart lesions (APEC O78 [2]; comparative efficacy, vs PC): 10.2% | % reduction in severity, Liver lesions (APEC O78 [2]; comparative efficacy, vs PC): 7.2% | % reduction in severity, Lung lesions (APEC O78 [2]; comparative efficacy, vs PC): 29.5% | Effect on body weight gain (BWG) and feed conversion ratio (FCR) (APEC O78 [2]; floor trial): No significant effect | Overall BWG (APEC O78 [2]; floor trial, day 42 minus day 1, NC 2,501.2): 2,432.4 g | Overall FCR (APEC O78 [2]; floor trial, NC 1.45): 1.45 | Survival of chickens (APEC O78 [2]; floor trial, P < 0.1): increased the survival
